Assay results from patent publication US6835382B2, “Ii peptide therapeutics to enhance antigen presentation” (University of Massachusetts, priority 1996, dated 2004).

Experiments:
[1] = tested on: murine E^k MHC class II allele; experiment: antigenic peptide prepulse assay, E^k allele (fixed APC prepulsed with PGCC81-104); assay type: cell-based
In short: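 Paraformaldehyde-fixed APC were loaded for 6 h with antigenic peptide (PGCC81-104 for E^k), washed, then cultured for 24 h with specific T hybridoma plus AE101 peptide. Interleukin release was measured as HT-2 proliferation on supernatant.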

[2] = molecular target: T1, murine E^d MHC class II allele (Mus musculus, UniProt P01904+P01915); experiment: antigenic peptide prepulse assay, E^d allele (fixed APC prepulsed with HEL106-116); assay type: cell-based; design: The A20 and CH27 B cell lymphoma lines express H-2^d and H-2^k alleles, respectively; endogenous in cells; host or cells: A20 B cell lymphoma (mitomycin C-treated or paraformaldehyde-fixed); conditions: AE peptide 64 μM
T1 sequence (P01904 26-255): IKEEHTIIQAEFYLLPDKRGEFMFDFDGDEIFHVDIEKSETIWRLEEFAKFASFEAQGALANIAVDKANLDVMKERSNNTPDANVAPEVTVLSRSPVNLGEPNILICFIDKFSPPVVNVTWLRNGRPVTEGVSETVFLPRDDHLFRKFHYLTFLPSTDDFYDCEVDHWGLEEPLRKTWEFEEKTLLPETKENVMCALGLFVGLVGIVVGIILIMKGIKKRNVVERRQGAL
T1 sequence (P01915 27-264 limits assumed): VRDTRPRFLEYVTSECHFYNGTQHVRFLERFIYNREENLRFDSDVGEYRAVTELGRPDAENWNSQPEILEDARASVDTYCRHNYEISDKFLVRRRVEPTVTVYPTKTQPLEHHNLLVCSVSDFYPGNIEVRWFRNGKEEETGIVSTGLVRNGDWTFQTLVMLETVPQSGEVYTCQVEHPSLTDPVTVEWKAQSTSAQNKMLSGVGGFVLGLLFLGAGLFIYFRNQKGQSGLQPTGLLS

| Substance | Activity in antigenic peptide prepulse assay, E^k (baseline = 1.00) ([1]; Table 25, AE peptide 64 μM, prepulse 2.5 μM antigenic peptide, supernatant 1:10) | Activity in antigenic peptide prepulse assay, E^d (baseline = 1.00) ([2]; Table 25, prepulse 24 μM antigenic peptide, supernatant 1:4) | Activity in antigenic peptide prepulse assay, E^k (baseline = 1.00) ([1]; Table 20, AE peptide 16 μM, prepulse 20 μM antigenic peptide, supernatant 1:2) | Activity in antigenic peptide prepulse assay, E^d (baseline = 1.00) ([2]; Table 20, prepulse 3 μM antigenic peptide, supernatant 1:2) |
| --- | --- | --- | --- | --- |
| Ac-LRMK N PK-NH2 (Ac-LRMKNPK-NH2) [AE232] | 0.92 | 0.44 |  |  |
| Ac-Y L MKLPKSAK-NH2 [AE142] |  |  | 0.46 | 0.86 |
